Counter-ions that a name gives are not always drawn.
Legend:
[1] = in the presence of iron (III)
[2] = Stability of urea on exposure to higher temperature; type: physicochemical; conditions: 180° C. for 8 h
Description: In order to assess the stability of synthetic acids containing urea, the stability of urea was tested by only considering its exposure to higher temperature. Urea 50% diluted with 50% seawater @ 180° C. for 8 h. […] This confirms that synthetic acids containing urea have decreasing stability when heated above 90° C. and are less desirable to use than compositions according to the present invention which have stability when exposed to temperatures above 200° C.

Molecule	pH of full precipitation [1]	observation after exposure to high temperature [2]	pH after exposure to high temperature [2]	pH before exposure to high temperature [2]
Cl [HCl, hydrochloric acid]	approximately 2.5			
Urea [Urea 50% diluted with 50% seawater]		strong ammonia smell	9.44	7.61

From US11795381B2, “Using synthetic acid compositions as alternatives to conventional acids in the oil and gas industry” (priority 2016, dated 2023)
